This passage reports EC50 results from US11001564B2, “Substituted chromane-8-carboxamide compounds and analogues thereof, and methods using same” (priority 2016, dated 2021).

Counter-ions that a name gives are not always drawn.

The test system of one experiment is HBV rcDNA in HepDE19 cells. Description: HepDE19 assay with bDNA quantitation of HBV rcDNA. The settings on record: Hepatitis B virus, HepDE19, 168 h, HepDE19 cells, 7 day incubation, rcDNA by Quantigene 2.0 bDNA assay; read-out: DE-19 bDNA EC50. Type of experiment: cell-based, hepatitis B virus (HBV). As for the experimental part: HepDE19 Assay with bDNA Quantitation of HBV rcDNA:
HepDE19 cell culture system is a HepG2 (human hepatocarcinoma) derived cell line that supports HBV DNA replication and cccDNA formation in a tetracycline (Tet)-regulated manner and produces HBV rcDNA and a detectable reporter molecule dependent on the production and maintenance of cccDNA (Guo, et al., 2007, J. Virol. 81:12472-12484).
HepDE19 (50,000 cells/well) were plated in 96 well collagen-coated tissue-culture treated microtiter plates in DMEM/F12 medium supplemented with 10% fetal bovine serum, 1% penicillin-streptomycin and 1 μg/mL tetracycline and incubated in a humidified incubator at 37° C. and 5% CO2 overnight. Next day, the cells were switched to fresh medium without tetracycline and incubated for 4 hours at 37° C. and 5% CO2. The cells were treated with fresh Tet-free medium with compounds at concentrations starting at 25 μM and a serial, ½ log, 8-point, titration series in duplicate. The final DMSO concentration in the assay was 0.5%. The plates were incubated for 7 days in a humidified incubator at 37° C. and 5% CO2. Following a 7 day-incubation, the level of rcDNA present in the inhibitor-treated wells was measured using a Quantigene 2.0 bDNA assay kit (Affymetrix, Santa Clara, Calif.) with HBV specific custom probe set and manufacturers instructions. Concurrently, the effect of compounds on cell viability was assessed using replicate plates, plated at a density of 5,000 cells/well and incubated for 4 days, to determine the ATP content as a measure of cell viability using the cell-titer glo reagent (CTG; Promega Corporation, Madison, Wis.) as per manufacturer's instructions. The plates were read using a Victor luminescence plate reader (PerkinElmer Model 1420 Multilabel counter) and the relative luminescence units (RLU) data generated from each well was calculated as % inhibition of the untreated control wells and analyzed using XL-Fit module in Microsoft Excel to determine EC50 and EC90 (bDNA) and CC50 (CTG) values using a 4-parameter curve fitting algorithm.
Representative compounds of the invention were tested for their ability to inhibit formation of relaxed circular DNA (rcDNA) in a HepDE19 assay, as described elsewhere herein.
On to `CNC(=O)CC1CCOc2c(C(=O)Nc3ccc(F)c(F)c3)cccc21` (single isomer, unassigned) [Compound 131, N-(3,4-difluorophenyl)-4-(2-(methylamino)-2-oxoethyl) chromane-8-carboxamide], for which the EC50 (usually the concentration needed to bring the measured effect to its halfway point) amounted to 20 µM.

Regarding `O=C(Nc1ccc(F)c(F)c1)c1c(F)ccc2c1OCC[C@@H]2Nc1ncccn1` [Compound 56, (S)—N-(3,4-Difluorophenyl)-7-fluoro-4-(pyrimidin-2-ylamino)chromane-8-carboxamide], the half-maximal effective concentration (EC50) amounted to 2.5 µM.

In the case of `Cc1cccc(COC(=O)N[C@H]2CCOc3c(C(=O)Nc4ccc(F)c(Cl)c4)cccc32)n1` [Compound 52, (6-Methylpyridin-2-yl)methyl (S)-(8-((3-chloro-4-fluorophenyl)carbamoyl)chroman-4-yl)carbamate], the EC50 stood at 1.7 µM.

Regarding `CN(C)C(=O)CC1CCOc2c(C(=O)Nc3ccc(F)c(F)c3)cccc21` (stereo not drawn) [Compound 133, N-(3,4-difluorophenyl)-4-(2-(dimethylamino)-2-oxoethyl) chromane-8-carboxamide], the EC50 is 14 µM.

With `CN1CCCC(COC(=O)N[C@H]2CCOc3c(C(=O)Nc4ccc(F)c(F)c4)cccc32)C1` (single isomer, unassigned) [Compound 98], the EC50 worked out at 23 µM.

As to `O=C(Nc1ccc(F)c(F)c1)c1cccc2c1OCCC2c1cccnc1` (stereo not drawn) [Compound 63, N-(3,4-difluorophenyl)-4-(pyridin-3-yl)chromane-8-carboxamide], the EC50 was 14 µM.

As for `COCC(=O)N[C@H]1CCOc2c(C(=O)Nc3ccc(F)c(C)c3)ccc(F)c21` [Compound 129, (4S)-5-Fluoro-N-(4-fluoro-3-methylphenyl)-4-(2-methoxyacetamido)-3,4-dihydro-2H-1-benzopyran-8-carboxamide], the EC50 turned out to be 2.5 µM.

On to `O=C1CCOc2c1ccc(F)c2C(=O)Nc1ccc(F)c(F)c1` [Compound 64, N-(3,4-difluorophenyl)-7-fluoro-4-oxochromane-8-carboxamide], for which the EC50 was found to be 3.8 µM.

For `O=C1C[C@@H](COC(=O)N[C@H]2CCOc3c(C(=O)Nc4ccc(F)c(Cl)c4)ccc(F)c32)N1` [Compound 154, ((S)-4-Oxoazetidin-2-yl)methyl ((S)-8-((3-chloro-4-fluorophenyl)carbamoyl)-5-fluorochroman-4-yl)carbamate], the half-maximal effective concentration (EC50) stood at 1.1 µM.

As for `COC(=O)N[C@H]1CCOc2c(C(=O)Nc3ccccc3)cccc21` [Compound 35, Methyl (S)-(8-(phenylcarbamoyl)chroman-4-yl)carbamate], the EC50 stood at 7.5 µM.

For the molecule `O=C(N[C@H]1CCOc2c(C(=O)Nc3ccc(F)c(F)c3)cccc21)OCC1CCNC1` (single isomer, unassigned) [Compound 108], the EC50 amounted to 21 µM.

As to `Cc1cc(NC(=O)c2ccc(F)c3c2OCC[C@@H]3NC(=O)OC[C@@H]2CCC(=O)N2)ccc1F` [Compound 137, ((S)-5-Oxopyrrolidin-2-yl)methyl ((S)-5-fluoro-8-((4-fluoro-3-methylphenyl)carbamoyl)chroman-4-yl)carbamate], the concentration giving a half-maximal response (EC50) amounted to 0.9 µM.

Turning to `COc1cnc(N[C@H]2CCOc3c(C(=O)Nc4ccc(F)c(F)c4)cccc32)nc1` [Compound 55, (S)—N-(3,4-Difluorophenyl)-4-((5-methoxypyrimidin-2-yl)amino)chromane-8-carboxamide], the EC50 turned out to be 2 µM.

`O=C(N[C@@H]1CCOc2c(C(=O)Nc3ccc(F)c(F)c3)cccc21)OCc1ccncc1` [Compound 30, pyridin-4-ylmethyl (R)-(8-((3,4-difluorophenyl)carbamoyl)chroman-4-yl)carbamate]: the EC50 is 11 µM.

Take `COC(=O)NC1CCNc2c(C(=O)Nc3ccc(F)c(Cl)c3)cccc21` (stereo not drawn) [Compound 176, methyl (8-((3-chloro-4-fluorophenyl)carbamoyl)-1,2,3,4-tetrahydroquinolin-4-yl)carbamate]: the EC50 came to 23 µM.

With `COC(=O)N[C@H]1CCOc2c(C(=O)Nc3ccc(F)cc3)cccc21` [Compound 33, Methyl (S)-(8-((4-fluorophenyl)carbamoyl)chroman-4-yl)carbamate], the EC50 amounted to 3.5 µM.

Take `O=C(N[C@@H]1CCOc2c(C(=O)Nc3ccc(F)c(F)c3)cccc21)OCc1ccccn1` [Compound 28, pyridin-2-ylmethyl (R)-(8-((3,4-difluorophenyl)carbamoyl)chroman-4-yl)carbamate]: the EC50 came to 15 µM.

Take `O=C(N[C@H]1CCOc2c(C(=O)Nc3ccc(F)c(F)c3)ccc(Cl)c21)OCc1ccccn1` [Compound 134, Pyridin-2-ylmethyl (S)-(5-chloro-8-((3,4-difluorophenyl)carbamoyl)chroman-4-yl)carbamate]: the EC50 amounted to 1.3 µM.

As for `Cc1cc(NC(=O)c2ccc(F)c3c2OCC[C@@H]3NC(=O)OC[C@H]2CCC(=O)N2C)ccc1F` [Compound 168, ((R)-1-Methyl-5-oxopyrrolidin-2-yl)methyl ((S)-5-fluoro-8-((4-fluoro-3-methylphenyl)carbamoyl)chroman-4-yl)carbamate], the concentration giving a half-maximal response (EC50) worked out at 1.6 µM.

With `Cn1ccc(COC(=O)N[C@H]2CCOc3c(C(=O)Nc4ccc(F)c(F)c4)cccc32)n1` [Compound 72, (1-Methyl-1H-pyrazol-3-yl)methyl (S)-(8-((3,4-difluorophenyl)carbamoyl)chroman-4-yl)carbamate], the EC50 was determined as 2 µM.

Still in this experiment, the particulars now being: Hepatitis B virus, HepDE19, 168 h, read-out: DE-19 bDNA EC50, HepDE19 cells, 7 day incubation, rcDNA by Quantigene 2.0 bDNA assay.
In the case of `CNC(=O)N1CCC(COC(=O)N[C@H]2CCOc3c(C(=O)Nc4ccc(F)c(Cl)c4)ccc(F)c32)CC1` [Compound 165, (1-(Methylcarbamoyl)piperidin-4-yl)methyl (S)-(8-((3-chloro-4-fluorophenyl)carbamoyl)-5-fluorochroman-4-yl)carbamate], the EC50 was 0.35 µM.

Regarding `CNC(=O)N[C@H]1CCOc2c(C(=O)Nc3ccc(F)c(F)c3)c(F)cc(F)c21` [Compound 116, (S)—N-(3,4-Difluorophenyl)-5,7-difluoro-4-(3-methylureido)chromane-8-carboxamide], the EC50 came to 1.8 µM.

Regarding `Cc1cc(NC(=O)c2ccc(F)c3c2OCC[C@@H]3NC(=O)NCc2ccccn2)ccc1F` [Compound 150, (S)-5-Fluoro-N-(4-fluoro-3-methylphenyl)-4-(3-(pyridin-2-ylmethyl)ureido)chromane-8-carboxamide], the EC50 was found to be 1.2 µM.

On to `COC(=O)N[C@H]1CCOc2c(C(=O)Nc3ccc(F)c(F)c3)ccc(Cl)c21` [Compound 125, Methyl (S)-(5-chloro-8-((3,4-difluorophenyl)carbamoyl)chroman-4-yl)carbamate], for which the EC50 came to 2.3 µM.

Consider `COc1ccnc(COC(=O)N[C@H]2CCOc3c(C(=O)Nc4ccc(F)c(F)c4)cccc32)c1` [Compound 80, (4-Methoxypyridin-2-yl)methyl (S)-(8-((3,4-difluorophenyl)carbamoyl)chroman-4-yl)carbamate hydrochloride], for which the EC50 turned out to be 2.7 µM.

Take `CNC(=O)N[C@H]1CCOc2c(C(=O)Nc3ccc(F)c(F)c3)ccc(F)c21` [Compound 40, (S)—N-(3,4-difluorophenyl)-5-fluoro-4-(3-methylureido)chromane-8-carboxamide]: the EC50 stood at 0.67 µM.

Still in this experiment, the particulars now being: read-out: DE-19 bDNA EC50; HepDE19 cells, 7 day incubation, rcDNA by Quantigene 2.0 bDNA assay.
With `O=C(N[C@H]1CCOc2c(C(=O)Nc3ccc(F)c(F)c3)cccc21)OC1CCOC1` (single isomer, unassigned) [Compound 25, Tetrahydrofuran-3-yl-(8-((3,4-difluorophenyl)carbamoyl)chroman-4-yl)carbamate], the EC50 stood at 23 µM.
